Assay results taken from PubChem BioAssay AID2060887 (Molecular Pharmacology Branch, DTP, NCI, 2025).
pIC50: −log10 of the molar value. Several values for one entry are separate records, joined by “and”; a condition that tells them apart may be missing. Identical values can stand only once.

Tested on: 782815-120-R-J1-PDC complex spheroid viability
Test: Anticancer human tumor 782815-120-R-J1-PDC patient-derived colon adenocarcinoma cell line growth inhibition [RAS]
Details: for viability, T/C: stronger effect = lower value
Outline: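 Agents were tested in combination matrices in half-log decrements from a top concentration at or near clinical Cmax (10 microM if undetermined). Targets were multi-cell spheroids of tumour lines plus HUVEC and MSC stromal cells.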
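Further: spheroids exposed to compounds for 7 days before reading.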
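Wherever viability, T/C is given: 100% = DMSO vehicle control viability.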

## CCN1CCN(Cc2ccc(Nc3ncc(F)c(-c4cc(F)c5nc(C)n(C(C)C)c5c4)n3)nc2)CC1 + CCn1c(-c2cc(N3CCN(C)CC3)cnc2C(C)OC)c2c3cc(ccc31)-c1csc(n1)CC(NC(=O)C1CC1C)C(=O)N1CCCC(N1)C(=O)OCC(C)(C)C2
Curve of first compound, second compound 0.000949 µM
  pIC50: < 6.00
Curve of first compound, second compound 0.003 µM
  pIC50: < 6.00
Curve of first compound, second compound 0.00949 µM
  pIC50: > 8.50
Curve of first compound, second compound 0.03 µM
  pIC50: > 8.50
Curve of first compound, second compound 0.0949 µM
  pIC50: > 8.50
Curve of first compound, second compound 0.3 µM
  pIC50: > 8.50
Second compound 0.000949 µM, first compound 0.00316 µM
  viability, T/C: 75.8%
Second compound 0.000949 µM, first compound 0.01 µM
  viability, T/C: 88%
Second compound 0.000949 µM, first compound 0.0316 µM
  viability, T/C: 92.3%
Second compound 0.000949 µM, first compound 0.1 µM
  viability, T/C: 84.9%
Second compound 0.000949 µM, first compound 0.316 µM
  viability, T/C: 94.6%
Second compound 0.000949 µM, first compound 1 µM
  viability, T/C: 114%
Second compound 0.003 µM, first compound 0.00316 µM
  viability, T/C: 58.6%
Second compound 0.003 µM, first compound 0.01 µM
  viability, T/C: 59.5%
Second compound 0.003 µM, first compound 0.0316 µM
  viability, T/C: 57.9%
Second compound 0.003 µM, first compound 0.1 µM
  viability, T/C: 59.7%
Second compound 0.003 µM, first compound 0.316 µM
  viability, T/C: 62.6%
Second compound 0.003 µM, first compound 1 µM
  viability, T/C: 64%
Second compound 0.00949 µM, first compound 0.00316 µM
  viability, T/C: 34.3%
Second compound 0.00949 µM, first compound 0.01 µM
  viability, T/C: 36.4%
Second compound 0.00949 µM, first compound 0.0316 µM
  viability, T/C: 34.4%
Second compound 0.00949 µM, first compound 0.1 µM
  viability, T/C: 39.4%
Second compound 0.00949 µM, first compound 0.316 µM
  viability, T/C: 34.8%
Second compound 0.00949 µM, first compound 1 µM
  viability, T/C: 32.5%
Second compound 0.03 µM, first compound 0.00316 µM
  viability, T/C: 20.2%
Second compound 0.03 µM, first compound 0.01 µM
  viability, T/C: 21.9%
Second compound 0.03 µM, first compound 0.0316 µM
  viability, T/C: 18.5%
Second compound 0.03 µM, first compound 0.1 µM
  viability, T/C: 18%
Second compound 0.03 µM, first compound 0.316 µM
  viability, T/C: 20.3%
Second compound 0.03 µM, first compound 1 µM
  viability, T/C: 20.8%
Second compound 0.0949 µM, first compound 0.00316 µM
  viability, T/C: 15.2%
Second compound 0.0949 µM, first compound 0.01 µM
  viability, T/C: 15.7%
Second compound 0.0949 µM, first compound 0.0316 µM
  viability, T/C: 14.5%
Second compound 0.0949 µM, first compound 0.1 µM
  viability, T/C: 17%
Second compound 0.0949 µM, first compound 0.316 µM
  viability, T/C: 19.3%
Second compound 0.0949 µM, first compound 1 µM
  viability, T/C: 17.1%
Second compound 0.3 µM, first compound 0.00316 µM
  viability, T/C: 15.6%
Second compound 0.3 µM, first compound 0.01 µM
  viability, T/C: 14.8%
Second compound 0.3 µM, first compound 0.0316 µM
  viability, T/C: 13.6%
Second compound 0.3 µM, first compound 0.1 µM
  viability, T/C: 13.3%
Second compound 0.3 µM, first compound 0.316 µM
  viability, T/C: 13.2%
Second compound 0.3 µM, first compound 1 µM
  viability, T/C: 18.2%

## NC1c2ccccc2OC12CCN(c1cnc3c(N4CCCc5ncccc54)n[nH]c3n1)CC2 (stereo not drawn)
Compound 0.0316 µM
  viability, T/C: 99% [middle of 4 runs]
Compound 0.1 µM
  viability, T/C: 96.6% [middle of 4 runs]
Compound 0.316 µM
  viability, T/C: 104% [middle of 4 runs]
Compound 1 µM
  viability, T/C: 95% [middle of 4 runs]
Compound 3.16 µM
  viability, T/C: 102% and 94.6% and 99.8% (2×)
Compound 10 µM
  viability, T/C: 86.9% [middle of 4 runs]
Curve of compound
  pIC50: < 5.00

## CC(C)n1nc(-c2ccc3oc(N)nc3c2)c2c(N)ncnc21 + C#Cc1c(F)ccc2cc(O)cc(-c3ncc4c(N5CC6CCC(C5)N6)nc(OCC56CCCN5CC(F)C6)nc4c3F)c12
Curve of first compound, second compound 0.0316 µM
  pIC50: < 7.00
Curve of first compound, second compound 0.1 µM
  pIC50: < 7.00
Curve of first compound, second compound 0.316 µM
  pIC50: < 7.00
Curve of first compound, second compound 1 µM
  pIC50: < 7.00
Curve of first compound, second compound 3.16 µM
  pIC50: < 7.00
Curve of first compound, second compound 10 µM
  pIC50: < 7.00
Second compound 0.0316 µM, first compound 0.000316 µM
  viability, T/C: 97%
Second compound 0.0316 µM, first compound 0.001 µM
  viability, T/C: 100%
Second compound 0.0316 µM, first compound 0.00316 µM
  viability, T/C: 105%
Second compound 0.0316 µM, first compound 0.01 µM
  viability, T/C: 98.1%
Second compound 0.0316 µM, first compound 0.0316 µM
  viability, T/C: 91.8%
Second compound 0.0316 µM, first compound 0.1 µM
  viability, T/C: 85.2%
Second compound 0.1 µM, first compound 0.000316 µM
  viability, T/C: 99.1%
Second compound 0.1 µM, first compound 0.001 µM
  viability, T/C: 91.4%
Second compound 0.1 µM, first compound 0.00316 µM
  viability, T/C: 101%
Second compound 0.1 µM, first compound 0.01 µM
  viability, T/C: 89.6%
Second compound 0.1 µM, first compound 0.0316 µM
  viability, T/C: 97%
Second compound 0.1 µM, first compound 0.1 µM
  viability, T/C: 81.6%
Second compound 0.316 µM, first compound 0.000316 µM
  viability, T/C: 96.6%
Second compound 0.316 µM, first compound 0.001 µM
  viability, T/C: 105%
Second compound 0.316 µM, first compound 0.00316 µM
  viability, T/C: 94.5%
Second compound 0.316 µM, first compound 0.01 µM
  viability, T/C: 108%
Second compound 0.316 µM, first compound 0.0316 µM
  viability, T/C: 88.1%
Second compound 0.316 µM, first compound 0.1 µM
  viability, T/C: 84.1%
Second compound 1 µM, first compound 0.000316 µM
  viability, T/C: 99.7%
Second compound 1 µM, first compound 0.001 µM
  viability, T/C: 101%
Second compound 1 µM, first compound 0.00316 µM
  viability, T/C: 88.6%
Second compound 1 µM, first compound 0.01 µM
  viability, T/C: 105%
Second compound 1 µM, first compound 0.0316 µM
  viability, T/C: 93.7%
Second compound 1 µM, first compound 0.1 µM
  viability, T/C: 83.8%
Second compound 3.16 µM, first compound 0.000316 µM
  viability, T/C: 98.7%
Second compound 3.16 µM, first compound 0.001 µM
  viability, T/C: 101%
Second compound 3.16 µM, first compound 0.00316 µM
  viability, T/C: 93.5%
Second compound 3.16 µM, first compound 0.01 µM
  viability, T/C: 92.6%
Second compound 3.16 µM, first compound 0.0316 µM
  viability, T/C: 92.1%
Second compound 3.16 µM, first compound 0.1 µM
  viability, T/C: 84.4%
Second compound 10 µM, first compound 0.000316 µM
  viability, T/C: 101%
Second compound 10 µM, first compound 0.001 µM
  viability, T/C: 95.3%
Second compound 10 µM, first compound 0.00316 µM
  viability, T/C: 85.3%
Second compound 10 µM, first compound 0.01 µM
  viability, T/C: 92.8%
Second compound 10 µM, first compound 0.0316 µM
  viability, T/C: 88.8%
Second compound 10 µM, first compound 0.1 µM
  viability, T/C: 74.7%

## C#Cc1c(F)ccc2cc(O)cc(-c3ncc4c(N5CC6CCC(C5)N6)nc(OCC56CCCN5CC(F)C6)nc4c3F)c12 (stereo not drawn)
Compound 0.0316 µM
  viability, T/C: 104% [middle of 8 runs]
Compound 0.1 µM
  viability, T/C: 103% [middle of 8 runs]
Compound 0.316 µM
  viability, T/C: 103% [middle of 8 runs]
Compound 1 µM
  viability, T/C: 97.9% [middle of 8 runs]
Compound 3.16 µM
  viability, T/C: 101% [middle of 8 runs]
Compound 10 µM
  viability, T/C: 95% [middle of 8 runs]
Compound alone, run of 07/15/2024
  pIC50: < 5.00
